From ChEMBL document CHEMBL1130606, “Synthesis and cytotoxicity of acetyl-4H,9H-naphtho[2,3-b]thiophene-4,9-diones” (1998)

Tests used:
NCI-H460 [1] = assay: Compound was evaluated for cytotoxicity against NCI-H460 non small cell lung cancer cell line; type: functional; conditions: Homo sapiens
CCRF-CEM = assay: Compound was evaluated for cytotoxicity against CCRF-CEM leukemia cell line; type: functional; conditions: Homo sapiens
MOLT-4 = assay: Compound was evaluated for cytotoxicity against MOLT-4 leukemia cell line; type: functional; conditions: Homo sapiens
SNB-19 [2] = assay: Compound was evaluated for cytotoxicity against SNB-19 CNS cancer cell line; conditions: Homo sapiens
NCI/ADR-RES = assay: Compound was evaluated for cytotoxicity against MCF 7/ADR-RES breast cancer cell line; conditions: Homo sapiens
NCI-H23 [3] = assay: Compound was evaluated for cytotoxicity against NCI-H23 non small cell lung cancer cell line; type: functional; conditions: Homo sapiens
MCF7 [4] = assay: Compound was evaluated for cytotoxicity against MCF-7 breast cancer cell lines; type: functional; conditions: Homo sapiens
SW-620 [5] = assay: Compound was evaluated for cytotoxicity against SW-620 colon cancer cell line; conditions: Homo sapiens
IGROV-1 = assay: Compound was evaluated for cytotoxicity against IGROV1 Ovarian cancer cell line; type: functional; conditions: Homo sapiens
OVCAR-3 = assay: Compound was evaluated for cytotoxicity against OVCAR-3 Ovarian cancer cell line; type: functional; conditions: Homo sapiens
NCI-H522 [6] = assay: Compound was evaluated for cytotoxicity against NCI-H522 non small cell lung cancer cell line; conditions: Homo sapiens
HCT-15 [7] = assay: Compound was evaluated for cytotoxicity against HCT-15 colon cancer cell line; conditions: Homo sapiens
MDA-MB-435 = assay: Compound was evaluated for cytotoxicity against MDA-MB-435 breast cancer cell line; type: functional; conditions: Homo sapiens
MDA-N = assay: Compound was evaluated for cytotoxicity against MDA-N breast cancer cell line; type: functional; conditions: Homo sapiens
SK-MEL-5 = assay: Compound was evaluated for cytotoxicity against SK-MEL-5 melanoma cell line; type: functional; conditions: Homo sapiens
SF-539 [8] = assay: Compound was evaluated for cytotoxicity against SF-539 CNS cancer cell line; conditions: Homo sapiens
LOX IMVI = assay: Compound was evaluated for cytotoxicity against LOX IMVI melanoma cell line; type: functional; conditions: Homo sapiens
MCF7 [9] = assay: Compound was evaluated for cytotoxicity against MCF-7 breast cancer cell line; type: functional; conditions: Homo sapiens
NCI-H522 [10] = assay: Compound was evaluated for cytotoxicity against […] non small cell lung cancer cell line; type: functional; conditions: Homo sapiens
SW-620 [11] = assay: Compound was evaluated for cytotoxicity against SW-620 colon cancer cell line; type: functional; conditions: Homo sapiens
SF-539 [12] = assay: Compound was evaluated for cytotoxicity against SF-539 CNS cancer cell line; type: functional; conditions: Homo sapiens
SNB-19 [13] = assay: Compound was evaluated for cytotoxicity against SNB-19 CNS cancer cell line; type: functional; conditions: Homo sapiens
HCT-15 [14] = assay: Compound was evaluated for cytotoxicity against HCT-15 colon cancer cell line; type: functional; conditions: Homo sapiens
KB = assay: Effective cytotoxic dose against KB cells was evaluated; type: functional; conditions: Homo sapiens, read-out: ED50 (the source's name)
SR = assay: Compound was evaluated for cytotoxicity against SR leukemia cell line; type: functional; conditions: Homo sapiens
NCI-H23 [15] = assay: Compound was evaluated for cytotoxicity against NCI-H23 non small cell kung cancer cell line; type: functional; conditions: Homo sapiens
NCI-H522 [16] = assay: Compound was evaluated for cytotoxicity against […] non small cell kung cancer cell line; type: functional; conditions: Homo sapiens
NCI-H460 [17] = assay: Compound was evaluated for cytotoxicity against NCI-H460 non small cell kung cancer cell line; type: functional; conditions: Homo sapiens

Row | Compound | GI50 (NCI-H460 [1]) [nM] | GI50 (CCRF-CEM) [nM] | GI50 (MOLT-4) [nM] | GI50 (NCI/ADR-RES) [nM] | GI50 (NCI-H23 [3]) [nM] | GI50 (IGROV-1) [nM] | GI50 (OVCAR-3) [nM] | GI50 (MDA-MB-435) [nM] | GI50 (MDA-N) [nM] | GI50 (SK-MEL-5) [nM] | GI50 (LOX IMVI) [nM] | GI50 (MCF7 [9]) [nM] | GI50 (SW-620 [11]) [nM] | GI50 (SF-539 [12]) [nM] | GI50 (SNB-19 [13]) [nM] | GI50 (HCT-15 [14]) [nM] | EC50 (KB) [nM] | further results
1 | CC(=O)c1csc2c1C(=O)c1ccccc1C2=O | 1320 | 1550 | < 10 | 2880 | 1050 | 2450 | 3550 | 324 | 933 | 170 | 2340 | – | – | – | – | – | – | GI50 (SNB-19 [2]): 1780 nM; GI50 (MCF7 [4]): 2090 nM; GI50 (SW-620 [5]): 2190 nM; GI50 (NCI-H522 [6]): 1740 nM; GI50 (HCT-15 [7]): 17400 nM; GI50 (SF-539 [8]): 2040 nM
2 | CC(=O)c1cc2c(s1)C(=O)c1ccccc1C2=O | 457 | 1000 | 2040 | 1910 | 447 | 1780 | 501 | 339 | 1200 | 347 | 347 | 1700 | 457 | 759 | 501 | 708 | – | GI50 (NCI-H522 [10]): 407 nM
3 | CC(=O)c1cc2c(o1)C(=O)c1ccccc1C2=O [NAPABUCASIN] | – | – | – | – | – | – | – | – | – | – | – | – | – | – | – | – | 4200 | –
4 | CC(=O)c1ccc2c(c1)C(=O)c1scc(C(C)=O)c1C2=O | – | – | – | – | – | – | – | – | – | – | – | – | – | – | – | – | 450 | –
5 | CC(=O)c1ccc2c(c1)C(=O)c1sc(C(C)=O)cc1C2=O | – | 182 | 66.1 | 324 | – | 427 | 331 | 178 | 316 | 174 | 219 | 316 | 204 | 355 | 1350 | 40.7 | ~1500 | GI50 (SR): 24.6 nM; GI50 (NCI-H23 [15]): 603 nM; GI50 (NCI-H522 [16]): 224 nM; GI50 (NCI-H460 [17]): 363 nM
